In ChEMBL document CHEMBL1123680, “The influence of physicochemical parameters on the biliary excretion of a series of nitroimidazoles” (J Med Chem, 1987) one finds dose excreted and logP data, which are given here for eleven compounds.

Series [1] can be described thus: Percent biliary excretion property by administering intravenously to rats was reported as amount of unchanged form of compound detected in bile samples collected at 0-4 hr after the treatment. The following applies: rat, iv.
Series [2] can be described thus: Percent biliary excretion property by administering intravenously to rats was reported as amount of unchanged form of compound detected in bile samples collected at 0-1 hr after the treatment. The following applies: rat, iv.
The nature of series [3]: Percent biliary excretion property by administering intravenously to rats was reported as amount of unchanged form of compound detected in bile samples collected at 0-5 hr after the treatment. The following applies: rat, iv.
A short description of series [4]: Percent biliary excretion property by administering intravenously to rats was reported as amount of unchanged form of compound detected in bile samples collected at 0-3 hr after the treatment. Particulars: rat, iv.
The nature of series [5]: Percent biliary excretion property by administering intravenously to rats was reported as amount of unchanged form of compound detected in bile samples collected at 0-6 hr after the treatment. The following applies: rat, iv.
Series [6] is described as follows: Percent biliary excretion property by administering intravenously to rats was reported as amount of unchanged form of compound detected in bile samples collected at 0-2 hr after the treatment. Particulars: rat, iv.
A short description of series [7]: Partition coefficient (logP). The following applies: octanol/water.

Molecules are shown by their SMILES.

A word on the logP: it is a log measure of how a compound divides between an organic and an aqueous phase. Turning to `Cn1c([N+](=O)[O-])cnc1C=O`, the dose excreted in series [1] stood at 29.2%; in series [2], 13%; in series [3], 31.1%; in series [4], 25%; in series [5] it was 32%; in series [6] it was 19.2%. Moreover, in series [7], the logP was -0.69.

For `O=[N+]([O-])c1c[nH]cn1`, the dose excreted in series [1] stood at 20.9%; in series [2] it was 8.71%; in series [3], 24.3%; in series [4], 17.6%; in series [5] it was 26.2%; in series [6], 14.1%.

Turning to `Cn1c([N+](=O)[O-])cnc1CO`, the dose excreted amounted to 34.6% in series [1]; 16.7% in series [2]; 34.6% in series [3]; 29.6% in series [4]; 37.8% in series [5]; 23.3% in series [6].

For the compound `Cn1c([N+](=O)[O-])cnc1/C=C/c1ccnc(N)n1` [AZANIDAZOLE], the dose excreted in series [1] was found to be 28.4%; in series [2], 14.4%; in series [3], 30.6%; in series [4] it was 25%; in series [5], 33.1%; in series [6], 21.1%.

As to `COC(=S)NCCn1c([N+](=O)[O-])cnc1C` [CARNIDAZOLE], the dose excreted in series [1] is 7%; in series [2], 1.91%; in series [3], 8.42%; in series [4], 5.11%; in series [5], 8.94%; in series [6] it was 3.43%.

`CC(C)c1ncc([N+](=O)[O-])n1C` [IPRONIDAZOLE]: the dose excreted in series [1] came out at 11.7%; in series [2], 2.99%; in series [3], 14%; in series [4], 9.6%; in series [5], 14%; in series [6] it was 5.37%.

Take `Cc1ncc([N+](=O)[O-])n1CCO` [METRONIDAZOLE]: the dose excreted turned out to be 19.7% in series [1]; 6.77% in series [2]; 22.3% in series [3]; 16.8% in series [4]; 24.6% in series [5]; 12.5% in series [6].

For the compound `O=[N+]([O-])c1cncn1CCN1CCOCC1` [NIMORAZOLE], the dose excreted is 8.71% in series [1]; 3.42% in series [2]; 10.7% in series [3]; 6.92% in series [4]; 11.8% in series [5]; 5.25% in series [6].

Regarding `Cc1ncc([N+](=O)[O-])n1CC(O)CCl` (stereo not drawn) [ORNIDAZOLE], the dose excreted in series [1] turned out to be 12.3%; in series [2], 1.68%; in series [3], 13.5%; in series [4], 10.6%; in series [5], 14.7%; in series [6] it was 7.33%.

Consider `Cn1c([N+](=O)[O-])cnc1COC(N)=O` [RONIDAZOLE], for which the dose excreted was 15.5% in series [1]; 4% in series [2]; 16.2% in series [3]; 8.88% in series [4]; 19.7% in series [5]; 6.96% in series [6]. The same compound yielded a logP in series [7] of -0.38.

For the compound `CCS(=O)(=O)CCn1c([N+](=O)[O-])cnc1C` [TINIDAZOLE], the dose excreted in series [1] came out at 7.58%; in series [2], 1.99%; in series [3] it was 8.81%; in series [4], 5.25%; in series [5], 10.5%; in series [6], 3.47%.
